Experimental data published in patent US4259332A, “Novel taurine derivatives” (priority 1979, dated 1981).

Key:
[1] = Vasodilator activity (vasodilation of the ocular conjunctiva in guinea pigs); assay type: in vivo, guinea pig
[2] = Antilipemic action, Morris, Handler or Nath diet, Compound B; assay type: in vivo, Wistar rat; conditions: 45 days, 200 mg/kg orally
Procedure: Wistar rats were treated for 45 days with a Morris diet, a Handler diet or a Nath diet. Simultaneously with the diet they received each day 200 mg/kg of Compound B or choline (except for the Nath diet) orally.

[3] = Antilipemic action, Morris or Handler diet, Compound A; assay type: in vivo, Wistar rat; conditions: 50 days, 200 mg/kg orally
Procedure: Wistar rats were treated for 50 days with a Morris diet or a Handler diet. Simultaneously with the diet they received 200 mg/kg of Compound A or of choline orally every day. The controls only received the diet. The following were examined at the end of the treatment: (a) total cholesterol, total lipids and beta-lipoproteins in the serum, (b) BSF excretion in the bile.

[4] = Choleretic activity in cannulated rats; assay type: in vivo, rat; conditions: for Bile dry residue change / Bile volume change / Bile dry residue after 2 h / Bile volume after 2 h: 100 mg/kg i.v.; for Bile dry residue after 2 h / Bile volume after 2 h: given after first hour; for Bile dry residue after 1 h / Bile volume after 1 h: before treatment (first hour)
Procedure: Rats were fitted with a cannula, the bile volume was measured after the first hour, they were then treated with a test compound and the bile volume was measure after the second hour, so as to determine the percentage change. The various compounds were administered intravenously at a dose of 100 mg/kg.

[5] = Protection against hepatic intoxication by CCl4 and cold, Compound B (BSF in blood); assay type: in vivo; conditions: 500 mg/kg endoperitoneal
Procedure: Oral administration of 5 ml/kg of a 20% solution of CCl4 in oil, with simultaneous endoperitoneal administration of 500 mg/kg of Compound B, was followed by exposure for 5 hours at 4° C. BSF in the blood (30 mg/kg i.v.) was tested. A comparison product, homocysteinethiolactone (OCT) was employed.
10 Animals were treated per group, and the results expressed as percentage change with respect to the controls were as shown in Table 4.

## O=C(O)C(O)C(O)C(=O)O.OCc1cccnc1 (stereo not shown) [3-Pyridylcarbinol tartrate, 3-pyridylcarbinol tartrate]
[1]; 0.1 mg/kg endoperitoneal
  Vasodilator effect: duration: 0 min
  Vasodilator effect: positive response: 0%
  Vasodilator effect: time of appearance: 0 s
[1]; 1.0 mg/kg endoperitoneal
  Vasodilator effect: positive response: 40%
[1]; 10.0 mg/kg endoperitoneal
  Vasodilator effect: duration: 120 min
  Vasodilator effect: positive response: 100%
  Vasodilator effect: time of appearance: 57 s

## C[N+](C)(C)CCO [Choline, choline, reference compound]
[2]; Handler diet, B and Choline
  Bile BSF, percentage change vs control: -39.5%
  Liver total lipids, percentage change vs control: -29.2%
  Serum total cholesterol, percentage change vs control: -21.1%
  Serum total lipids, percentage change vs control: +44.2%
[2]; Morris diet
  Bile BSF, percentage change vs control: -2.8%
  Liver total lipids, percentage change vs control: +14.0%
  Serum beta-lipoproteins, percentage change vs control: +89.8%
  Serum total cholesterol, percentage change vs control: -22.9%
  Serum total lipids, percentage change vs control: +2.3%
[3]; Handler diet
  Bile BSF excretion, percentage change vs controls: -39.5%
  Serum total cholesterol, percentage change vs controls: -21.1%
  Serum total lipids, percentage change vs controls: +44.2%
[3]; Morris diet
  Bile BSF excretion, percentage change vs controls: -2.8%
  Serum beta-lipoproteins, percentage change vs controls: +89.8%
  Serum total cholesterol, percentage change vs controls: -22.9%
  Serum total lipids, percentage change vs controls: +2.3%

## O=C(OC1C(OC(=O)c2cccnc2)C(OC(=O)c2cccnc2)C(OC(=O)c2cccnc2)C(OC(=O)c2cccnc2)C1OC(=O)c1cccnc1)c1cccnc1 (stereo not shown) [Mesoinosital hexanicotinate, mesoinosital hexanicotinate]
[1]; 1.0 mg/kg endoperitoneal
  Vasodilator effect: duration: 0 min
  Vasodilator effect: positive response: 0%
[1]; 10.0 mg/kg endoperitoneal
  Vasodilator effect: duration: 87 min
  Vasodilator effect: positive response: 100%
  Vasodilator effect: time of appearance: 81 s

## O=S(=O)(O)CCNCCO [N-hydroxyethyltaurine]
[4]
  Bile dry residue change: -10.9%
  Bile volume change: -12.2%
  Bile dry residue after 2 h: 26.0 mg/h
  Bile volume after 2 h: 0.72 mL/h
  Bile dry residue after 1 h: 29.1 mg/h
  Bile volume after 1 h: 0.82 mL/h

## O=C(O)c1cccnc1 [Nicotinic acid, nicotinic acid]
[1]; 10.0 mg/kg endoperitoneal
  Vasodilator effect: duration: 0 min
  Vasodilator effect: positive response: 0%
  Vasodilator effect: time of appearance: 0 s
[1]; 25.0 mg/kg endoperitoneal
  Vasodilator effect: positive response: 20%
[1]; 50.0 mg/kg endoperitoneal
  Vasodilator effect: duration: 87 min
  Vasodilator effect: positive response: 80%
  Vasodilator effect: time of appearance: 180 s

## NC1CCSC1=O (stereo not shown) [OCT, homocysteinethiolactone, reference compound]
[5]; test number 1
  Hepatic intoxication protection, percentage change of BSF in blood vs controls: -22.7%
[5]; test number 2
  Hepatic intoxication protection, percentage change of BSF in blood vs controls: -18.5%

## CCC(C(=O)O)C1(O)CCC(c2ccccc2)CC1 (stereo not drawn) [α-(1-hydroxy-4-phenylcyclohexyl)butyric acid]
[4]
  Bile dry residue change: +39.1%
  Bile volume change: +90.0%
  Bile dry residue after 2 h: 32.7 mg/h
  Bile volume after 2 h: 1.14 mL/h
  Bile dry residue after 1 h: 23.5 mg/h
  Bile volume after 1 h: 0.60 mL/h
